Results reported in ChEMBL document CHEMBL2424548, “Substrate-based peptidomimetic inhibitors of the Murray Valley encephalitis virus NS2B/NS3 serine protease: a P1-P4 SAR study” (Eur J Med Chem, 2013).
Non-standard residues stand in square brackets, D forms with d. Residues, ends and D or L forms follow the SMILES beside them. *: point of attachment. hArg = N=C(N)NCCCC[C@H](N)C(=O)O; Agmatine = N=C(N)NCCCCN*; Nle = CCCC[C@H](N)C(=O)O

Experiments:
[1] = Inhibition of Murray Valley encephalitis virus NS2B/NS3 protease using Pyr-RTKR-AMC as substrate after 1 hr by fluorescence assay
Prothrombin = Prothrombin (Homo sapiens, UniProt P00734); test: Inhibition of human thrombin after 1 hr by fluorescence assay
[2] = Chemical stability of the compound at 100 uM after 2 hrs in presence of MVEV NS2B/NS3 protease; type: physicochemical
[3] = Competitive inhibition of Murray Valley encephalitis virus NS2B/NS3 protease using Pyr-RTKR-AMC as substrate after 1 hr by Lineweaver-Burk plot analysis

Row | SMILES | IC50 [1] [µM] | further results
1 | CC(=O)N[C@@H](CCCCN)C(=O)N[C@@H](CCCCN)C(=O)NCCCCNC(=N)N | 16.8 | –
2 | N=C(N)NCCCCNC(=O)[C@H](CCCCN)NC(=O)[C@H](CCCCN)NC(=O)Cc1ccc(-c2ccccc2)cc1 | 18.4 | –
3 | N=C(N)NCCCCNC(=O)[C@H](CCCCN)NC(=O)[C@H](CCCCN)NC(=O)Cc1cccc(-c2ccccc2)c1 | 9.1 | –
4 | N=C(N)NCCCCNC(=O)[C@H](CCCCN)NC(=O)[C@@H](N)CCCCN | > 100 | –
5 | CCC(=O)N[C@@H](CCCCN)C(=O)N[C@@H](CCCCN)C(=O)NCCCCNC(=N)N | 49.1 | –
6 | CCCC(=O)N[C@@H](CCCCN)C(=O)N[C@@H](CCCCN)C(=O)NCCCCNC(=N)N | 50.9 | –
7 | CC(C)CC(=O)N[C@@H](CCCCN)C(=O)N[C@@H](CCCCN)C(=O)NCCCCNC(=N)N | 69.3 | –
8 | CC(C)C(=O)N[C@@H](CCCCN)C(=O)N[C@@H](CCCCN)C(=O)NCCCCNC(=N)N | 81.7 | –
9 | CC(C)(C)C(=O)N[C@@H](CCCCN)C(=O)N[C@@H](CCCCN)C(=O)NCCCCNC(=N)N | > 100 | –
10 | N=C(N)NCCCCNC(=O)[C@H](CCCCN)NC(=O)[C@H](CCCCN)NC(=O)c1ccccc1 | 32.3 | –
11 | N=C(N)NCCCCNC(=O)[C@H](CCCCN)NC(=O)[C@H](CCCCN)NC(=O)c1cccc2ccccc12 | 28.3 | –
12 | N=C(N)NCCCCNC(=O)[C@H](CCCCN)NC(=O)[C@H](CCCCN)NC(=O)c1ccc2ccccc2c1 | 24 | –
13 | N=C(N)NCCCCNC(=O)[C@H](CCCCN)NC(=O)[C@H](CCCCN)NC(=O)Cc1ccccc1 | 16.3 | –
14 | N=C(N)NCCCCNC(=O)[C@H](CCCCN)NC(=O)[C@H](CCCCN)NC(=O)CCc1ccccc1 | 30.7 | –
15 | N=C(N)NCCCCNC(=O)[C@H](CCCCN)NC(=O)[C@H](CCCCN)NC(=O)Cc1ccccc1Cl | 54 | –
16 | N=C(N)NCCCCNC(=O)[C@H](CCCCN)NC(=O)[C@H](CCCCN)NC(=O)Cc1cccc(Cl)c1 | 53.9 | –
17 | N=C(N)NCCCCNC(=O)[C@H](CCCCN)NC(=O)[C@H](CCCCN)NC(=O)Cc1ccc(Cl)cc1 | 14.1 | –
18 | Cc1ccccc1CC(=O)N[C@@H](CCCCN)C(=O)N[C@@H](CCCCN)C(=O)NCCCCNC(=N)N | 60.5 | –
19 | Cc1cccc(CC(=O)N[C@@H](CCCCN)C(=O)N[C@@H](CCCCN)C(=O)NCCCCNC(=N)N)c1 | 15.7 | –

Row | SMILES | IC50 [1] [µM] | further results
20 | Cc1ccc(CC(=O)N[C@@H](CCCCN)C(=O)N[C@@H](CCCCN)C(=O)NCCCCNC(=N)N)cc1 | 15.2 | –
21 | N=C(N)N1CCC(CNC(=O)[C@H](CCCCN)NC(=O)[C@H](CCCCN)NC(=O)Cc2cccc(-c3ccccc3)c2)CC1 | 4.9 | IC50 (Prothrombin): > 100 µM; Stability [2]: Stable; Ki [3]: 2.5 µM
22 | CCCCNC(=O)[C@H](CCCCN)NC(=O)[C@H](CCCCN)NC(C)=O | > 100 | –
23 | CC(=O)N[C@@H](CCCCN)C(=O)N[C@@H](CCCCN)C(=O)NCCCCNC(N)=O | > 100 | –
24 | CC(=O)N[C@@H](CCCCN)C(=O)N[C@@H](CCCCN)C(=O)NCCCCN | > 100 | –
25 | CC(=O)N[C@@H](CCCCN)C(=O)N[C@@H](CCCCN)C(=O)NCCCCCN | > 100 | –
26 | CC(=O)N[C@@H](CCCCN)C(=O)N[C@@H](CCCCN)C(=O)NCCCCCCN | > 100 | –
27 | CC(=O)N[C@@H](CCCCN)C(=O)N[C@@H](CCCCN)C(=O)NCCCNC(=N)N | > 100 | –
28 | CC(=O)N[C@@H](CCCCN)C(=O)N[C@@H](CCCCN)C(=O)NCCCCCNC(=N)N | 75.7 | –
29 | CC(=O)N[C@@H](CCCCN)C(=O)N[C@@H](CCCCN)C(=O)NC/C=C/CNC(=N)N | 58.3 | –
30 | CC(=O)N[C@@H](CCCCN)C(=O)N[C@@H](CCCCN)C(=O)NC/C=C\CNC(=N)N | > 100 | –
31 | CC(=O)N[C@@H](CCCCN)C(=O)N[C@@H](CCCCN)C(=O)NCC#CCNC(=N)N | 12.7 | –
32 | CC(=O)N[C@@H](CCCCN)C(=O)N[C@@H](CCCCN)C(=O)NCC1CCN(C(=N)N)CC1 | 9.2 | –
33 | CC(=O)N[C@@H](CCCCN)C(=O)N[C@@H](CCCCN)C(=O)N[C@H]1CC[C@@H](NC(=N)N)CC1 | > 100 | –
34 | CC(=O)N[C@@H](CCCCN)C(=O)N[C@@H](CCCCN)C(=O)NN | > 100 | –
35 | CCCC[C@H](NC(=O)[C@H](CCCCN)NC(C)=O)C(=O)NCCCCNC(=N)N (Ac-Lys-[Nle]-Agmatine) | > 100 | –
36 | CC(=O)N[C@@H](CCCCN)C(=O)N[C@@H](CCCCNC(=N)N)C(=O)NCCCCNC(=N)N (Ac-Lys-[hArg]-Agmatine) | 79.2 | –
37 | CCCC[C@H](NC(C)=O)C(=O)N[C@@H](CCCCN)C(=O)NCCCCNC(=N)N (Ac-[Nle]-Lys-Agmatine) | 45.2 | –
38 | CC(=O)N[C@@H](CCCCNC(=N)N)C(=O)N[C@@H](CCCCN)C(=O)NCCCCNC(=N)N (Ac-[hArg]-Lys-Agmatine) | 31.4 | –
